Reference: US4863925A, “Cyclohexanedione derivative for hepatic disorders and a process for producing the same” (Nihon Nohyaku Co., Ltd., priority 1986, dated 1989)

Assays:
[1] = tested on: hepatic disorder caused by carbon tetrachloride; assay: Effect of suppressing hepatic disorder caused by carbon tetrachloride (Test Example 1); type: in vivo, mice (dd-strain, male); set-up: key to Liver injury index: 0 = healthy, 2 = slight, 4 = evident injury, 6 = serious injury; conditions: 30 mg/kg p.o., 6 h before CCl4 0.05 ml/kg p.o., 24 h after CCl4, mean of five mice; for Liver injury index: 0 healthy, 2 slightly affected, 4 evidently observed injury, 6 serious injury; for P-GPT (plasma glutamic pyruvic transaminase activity): Reitman-Frankel, 2,000 or higher calculated as 2,000
Protocol: Effect of suppressing hepatic disorder caused by carbon tetrachloride. […] The animals were sacrificed 24 hours after the administration of carbon tetrachloride, and the extent of liver injury was examined. On the other hand, blood was collected from the animal at the time of the sacrifice, and centrifuged to obtain plasma. The plasma glutamic pyruvic transminase (GPT) activity was determined according to the method of Reitman-Frankel. The activity was expressed in terms of Karmen Units (K.U.). The conditions of the liver were expressed in terms of liver injury index as follows. |Liver injury index | Condition of liver |0 Healthy liver |2 Slightly affected |4 Evidently observed injury |6 Serious injury Mice were used in groups of five of test were represented by the mean value. When the GPT activity was 2,000 units or higher, or further determination was made, the activity was calculated as 2,000 units for reasons of convenience.

[2] = acute oral toxicity (LD50); conditions: in vivo, male rat
Protocol: For example, LD50 value (acute oral toxicity to male rat) of the compound No. 55 is more than 1,000 mg/kg.

SMILES	Liver injury index [1]	P-GPT (plasma glutamic pyruvic transaminase activity) [1] [K.U.]	LD50 [2] [mg/kg]
COc1ccc(C2CC(=O)C(=C3SC4C(S3)N(C)CCN4C)C(=O)C2)cc1 (centres unmarked) [compound 55]	0.3	107	> 1000
COc1ccc(C2CC(=O)C(=C3SC4C(S3)N(C)CCN4C)C(=O)C2)cc1 (centres unmarked) [compound 122]	1.5	231	–
